Reference: patent US9682994B2, “Inhibitors of retroviral replication” (The Scripps Research Institute, priority 2011, dated 2017)

Tests used:
[1] = biological target: ROCK II (Homo sapiens, UniProt O75116); settings: cited from earlier work
[2] = system: CMV and MLV promoters; experiment: Transcription from CMV and MLV promoters; type: cell-based
Excerpt: DNA-PK was identified as a binding partner of CA by mass spectrometry and further confirmation of this interaction was provided by performing a pull down assay (FIG. 15). Without wishing to be bound by theory, it was hypothesized that part of the mechanism by which CA inhibits HIV replication is by blocking the accrued DNA-PK phosphorylation of Sp1 mediated by Tat with a consequent reduction in both basal and Tat-mediated transcriptional activation of the HIV LTR promoter. Sp1 is thought to be essential for basal transcription and Tat-mediated activation of HIV-1.

[3] = biological target: T1, DNA-dependent protein kinase (DNA-PK) catalytic subunit (Homo sapiens, UniProt P78527); experiment: Bio-CA pull-down / mass spectrometry, DNA-PK; type: binding
T1 construct: endogenous in cells; host or cells: P42 (HeLa-CD4-LTR-LacZ) cells; HEK293T cells
Procedure: FIG. 14: Bio-CA associated proteins. […] After SDS-PAGE analysis and Coomassie staining, gel slices were trypsin-digested and sent to mass spectrometry analysis.
To identify cellular proteins associated with CA, a biotinylated form of the compound (Bio-CA) was used. […] The Bio-CA was used to cover streptavidin-coated magnetic beads to pull down interacting proteins from either uninfected or chronically infected lysates of cells grown in the presence or absence of CA for 48 hours (FIG. 14D). The identity of the proteins pulled down under the different conditions was determined by HPLC MS/MS analysis. The proteins were identified with a greater than 95% confidence using a proprietary Scripps proteomics software package for protein identification, statistical analysis, and mass/peptide sequence correlation. The HIV proteome was added to the proteomics software search database before analysis. Many proteins were identified in uninfected untreated and in chronically untreated samples (approximately 300), however only 53 were displaced by more than 50% by the presence of CA. Of these 53 proteins, it appears that at least 2 may have a role in HIV-1 replication: DNA-dependent protein kinase catalytic subunit (DNA-PK) and helicase like transcription factor (HLTF).

[4] = system: basic region Tat mutant (Tat-1 BRM); experiment: Biotinylated compound pull-down of basic region Tat mutant; type: binding, HIV-1
Procedure: (§1) HEK293T cells were transfected with flag-tagged Tat 101 a.a. (Tat-F-101-wt), a shorter Tat version with 86 a.a. (Tat-F-86-wt), Tat 86 a.a. mutated in the basic domain (Tat-F-BRM), flag-tagged CDK11 (CDK11-F), flag-tagged 9G8 (9G8-F) and empty vector control.
(§2) DYNABEADS® MYONE™ Streptavidin T1 (12.5 μl slurry) (Invitrogen) were pre-saturated with 1.88 μl of 1 mM in DMSO of Biotin alone or Bio-dCA and incubated for 1 h at room temperature with orbital rocking, plus an additional 30 min with Biotin (0.63 μl of 1 mM in DMSO). Protein extracts (250 μg per sample) were incubated with the pre-saturated beads in lysis buffer supplemented with 0.1% BSA for 1 h at 4° C. with orbital rocking. After incubation, the beads were washed three times with lysis buffer.

[5] = system: human umbilical vein endothelial cells (HUVECs); settings: read-out: average half maximal inhibitory concentration (IC50), anti-proliferative; cited from earlier work
[6] = system: RNA polymerase; experiment: Bio-CA pull-down, RNA polymerase
[7] = system: HIV-1 pNL4-3; experiment: Acute HIV-1 infection, HeLa-CD4-LTR-LacZ reporter CPRG assay; type: cell-based
Procedure: Forty-eight hours post infection a quantitative chlorophenol red-β-D-galactopyranoside (CPRG) assay was performed.
Twenty-four hours later HIV-1 pNL4-3 was added to the cells of both experiment sets (MOI>>10) in the presence of testing compound or DMSO control. CPRG assay performed 48 h later.
HeLa-CD4 cells were infected with HIV-1 pNL4-3 in the presence of the indicated compounds or DMSO. Forty hours post infection a CPRG assay was performed. […] Error bars represent standard deviation.
P42 cells were plated at 1×10^4 cells per well of 96 well. Twenty-four hours later HIV-1 pNL4-3 was added to the wells in the presence of testing compound or DMSO control in a total volume of […] Forty hours post infection cells were disrupted in lysis buffer (60 mM Na2HPO4, 40 mM NaH2PO4, 10 mM KCl, 10 mM MgSO4, 2.5 mM EDTA, 50 mM β-mercaptoethanol, 0.125% Nonidet P-40) and a quantitative chlorophenol red-β-D-galactopyranoside (CPRG)-based (Boehringer Mannheim) assay was performed. The cell extracts were incubated in a reaction buffer (0.9 M phosphate buffer [pH 7.4], 9 mM MgCl2, 11 mM β-mercaptoethanol, 7 mM CPRG) until a red color developed (from approximately 10 min to 4 h) and measured with an LP400 (Becton Dickinson) plate reader at 572 nm. Experiments were performed in triplicate.
Transcription of the HIV-1 provirus is regulated by both viral and cellular transcription factors. Before Tat is produced, low-level basal transcription from the viral promoter is initiated by cellular factors, such as the nuclear factor-kappa B (NF-kB), Sp1, TATA-binding protein and RNAPII. A desirable Tat inhibitor should block Tat-mediated activation of the viral promoter without affecting its basal transcription, which would result in cellular toxicity, given the shared transcription factors of the HIV promoter and cellular genes.

[8] = biological target: CDK11 (Homo sapiens, UniProt P21127); experiment: Biotinylated compound pull-down of CDK11; type: binding; design: expressed in transfected cells; host or cells: HEK293T
Procedure: as §1, §2

[9] = biological target: Sp1 (Homo sapiens, UniProt P08047); experiment: Bio-CA pull-down, Sp1
Procedure: HEK293T cells were transfected with wt-Tat101-flag, vvtTat86-flag, Tat86mutant-TAR domain, CDK11-flag or 9G8-flag as negative control. Forty hours later, protein extracts were incubated with DYNABEADS® MYONE™ Streptavidin T1 coated with either biotin or Biotinylated-CA. Pulled down proteins analyzed by Western blot with the indicated antibodies.

[10] = biological target: CDK11 (Homo sapiens, UniProt Q9BWU1); settings: cited from earlier work
[11] = biological target: CDK8 (Homo sapiens, UniProt P49336); settings: cited from earlier work
[12] = system: Tat; experiment: Biotinylated compound streptavidin-bead pull-down of Tat; type: binding, HIV-1; settings: for competition for binding of recombinant Tat to Bio-dCA: excess competitor
Procedure: as §1
Recombinant Tat protein was incubated with Bio-dCA streptavidin-coated beads in the presence or absence of an excess of non-biotinylated dCA (represented as molar equivalent [eq.] of Bio-dCA). Raltegravir and recombinant GST-9G8 were used as a negative control competitor or as negative protein-binding control, respectively.
as §2
For the pull-down of recombinant Tat (#2222 of NIH) and GST-9G8, streptavidin-agarose beads (40 μl slurry) were pre-saturated with 1.5 μl of 1 mM in DMSO, Biotin alone, or Bio-dCA and incubated for 1 h at room temperature. […] After incubation, the beads were washed three times with PBS and proteins were eluted as before.

[13] = system: HIV-1 pNL4-3; experiment: Chronically HIV-1 infected HeLa-CD4 cells, viral RNA by qRT-PCR / p24; type: cell-based; settings: Human immunodeficiency virus 1; read-out: EC50 for abrogating chronic HIV infection
Procedure: FIG. 1G: p24 antigen quantification. Viral supernatants recovered from cells described in FIG. 1B, grown for 60 days, were assayed for their p24 antigen content using a sandwich ELISA kit. Error bars represent standard deviations.
First-strand cDNA from RNA for qPCR was prepared using […]™ first-strand cDNA kit (Invitrogen), following the manufacturer's instructions, using approximately 5 μg of RNA as starting material and random hexamers as first-strand primers. Quantitative PCR was performed with an aliquot of cDNA as template, using […]® 480 SYBR Green I Master (Roche) in a 20 μL reaction according to the manufacturer's instructions. […] The primers used were as follows: […]
Such an early time point rules out de novo infections. […] This conclusion was further supported by the fact that treatment of cells that were chronically infected, and therefore continuously shedding the virus (without incurring new infections, due to down-regulation of CD4 from the cell surface), reduced virus production to undetectable levels (FIG. 1F). […] Results were similar when viral release from cells treated for 60 days were measured by p24 enzyme-linked immunosorbent assay (ELISA) (FIG. 1G).

[14] = system: HIV-1 pNL43; experiment: HIV-1 replication in PHA/IL-2 stimulated human PBMCs, p24 ELISA; type: cell-based; settings: p24 ELISA, 5 days post infection
Procedure: Freshly isolated uninfected human PBMCs were stimulated with PHA for two days, washed, and grown from then on in IL-2 alone. […] Antigen p24 was measured 5 days post infection using a sandwich ELISA kit.
To isolate PBMCs, 24 ml of total blood diluted two fold in RPMI or PBS were carefully layered over 12 ml of Ficoll-paque and centrifuged at 2000 rpm for 20 min (brakes off). Resultant layers are approximately from top to bottom: plasma-platelets-PBMC-Ficoll-red blood cells (with granulocytes). Most of the plasma was pipetted off and discarded. The buffy coat with PBMC's was carefully removed from 3 large (50 ml) tubes and transferred to a new 50 ml tube. The remaining Ficoll and red blood cells were discarded in closed tubes. Enough PBS was added to the PBMCs to make up 50 ml and centrifuged at 1200 rpm for 10 min, brakes on. The supernatant was decanted and the pellet was loosened and washed twice with PBS. Washed pellet was recovered in 30 ml of RPMI 1640 supplemented with 10% serum, 1% Penicillin-streptomycin and mixed well. PBMCs were counted and plated at 1×10^6 cells/ml. To activate the PBMCs, PHA (phytohaemagglutinin) was added at 3 μg/ml. Two to three days later add Interleukin 2 (IL2) at 3×10^−3 μg/ml.
PHA activated PBMCs were centrifuged and recovered at 6×10^6 cells in 3 ml complete RPMI. Then 3 ml of viral supernatant was added and incubated for 4 h at 37° C. After this period, cells were centrifuged, washed 3 times with PBS and recovered in 3 ml complete RPMI. PBMCs were plated at 0.5 ml per well in a 6-well plate, and 0.5 ml media with DMSO control or anti-viral control at 2× final concentration was added. IL-2 was added at 3×10^−3 μg/ml. Supernatant was recovered for p24 assay every 3-4 days post infection. Cells were split at 1×10^6 cell per ml every 5-7 days.
HIV-1 transcription is intimately linked to T-cell activation due to shared motifs between the HIV-LTR and the regulatory regions in induced genes, namely NF-κB. A large variety of T cell stimuli activate NF-κB, including PHA, IL-2 and tumor necrosis factor alpha (TNF-α).

[15] = system: HeLa-CD4 cells; experiment: MTT mitochondrial metabolic activity (cell viability); type: cell-based

Sequence of CDK11 (Homo sapiens, UniProt Q9BWU1) (Q9BWU1 whole entry): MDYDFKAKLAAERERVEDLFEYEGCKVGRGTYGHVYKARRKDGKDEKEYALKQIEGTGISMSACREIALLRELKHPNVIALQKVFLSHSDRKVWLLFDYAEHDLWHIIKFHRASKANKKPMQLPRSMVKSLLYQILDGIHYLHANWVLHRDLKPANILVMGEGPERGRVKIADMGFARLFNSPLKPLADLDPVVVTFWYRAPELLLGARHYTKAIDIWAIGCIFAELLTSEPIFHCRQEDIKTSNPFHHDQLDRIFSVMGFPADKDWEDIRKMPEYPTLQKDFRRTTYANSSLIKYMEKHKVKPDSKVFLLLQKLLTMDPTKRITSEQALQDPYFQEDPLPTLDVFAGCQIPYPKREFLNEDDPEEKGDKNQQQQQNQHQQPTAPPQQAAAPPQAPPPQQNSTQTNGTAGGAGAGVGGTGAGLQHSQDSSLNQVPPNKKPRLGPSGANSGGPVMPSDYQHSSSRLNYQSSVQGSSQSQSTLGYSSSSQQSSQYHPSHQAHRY
Sequence of Sp1 (P08047 whole entry): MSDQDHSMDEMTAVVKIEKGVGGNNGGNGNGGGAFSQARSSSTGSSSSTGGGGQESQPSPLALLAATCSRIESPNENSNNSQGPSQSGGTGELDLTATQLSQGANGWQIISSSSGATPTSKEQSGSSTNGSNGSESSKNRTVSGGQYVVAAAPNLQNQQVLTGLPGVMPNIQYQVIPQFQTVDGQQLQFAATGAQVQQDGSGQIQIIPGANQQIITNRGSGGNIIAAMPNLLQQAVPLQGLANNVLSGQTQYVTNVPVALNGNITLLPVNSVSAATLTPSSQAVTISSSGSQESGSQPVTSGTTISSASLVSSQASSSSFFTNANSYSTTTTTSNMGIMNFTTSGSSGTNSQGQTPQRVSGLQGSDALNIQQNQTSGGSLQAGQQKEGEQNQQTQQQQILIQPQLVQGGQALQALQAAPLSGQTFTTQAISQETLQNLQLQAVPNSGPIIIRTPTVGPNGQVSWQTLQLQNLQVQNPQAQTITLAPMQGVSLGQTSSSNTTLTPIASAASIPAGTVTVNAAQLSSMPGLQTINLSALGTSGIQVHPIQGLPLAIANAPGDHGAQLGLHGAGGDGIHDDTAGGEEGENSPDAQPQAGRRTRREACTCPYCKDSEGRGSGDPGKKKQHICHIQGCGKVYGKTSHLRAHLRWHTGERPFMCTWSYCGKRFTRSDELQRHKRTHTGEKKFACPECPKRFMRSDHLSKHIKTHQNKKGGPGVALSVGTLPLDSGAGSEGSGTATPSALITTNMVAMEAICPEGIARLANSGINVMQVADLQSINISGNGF
Sequence of CDK11 (Homo sapiens, UniProt P21127) (P21127 whole entry): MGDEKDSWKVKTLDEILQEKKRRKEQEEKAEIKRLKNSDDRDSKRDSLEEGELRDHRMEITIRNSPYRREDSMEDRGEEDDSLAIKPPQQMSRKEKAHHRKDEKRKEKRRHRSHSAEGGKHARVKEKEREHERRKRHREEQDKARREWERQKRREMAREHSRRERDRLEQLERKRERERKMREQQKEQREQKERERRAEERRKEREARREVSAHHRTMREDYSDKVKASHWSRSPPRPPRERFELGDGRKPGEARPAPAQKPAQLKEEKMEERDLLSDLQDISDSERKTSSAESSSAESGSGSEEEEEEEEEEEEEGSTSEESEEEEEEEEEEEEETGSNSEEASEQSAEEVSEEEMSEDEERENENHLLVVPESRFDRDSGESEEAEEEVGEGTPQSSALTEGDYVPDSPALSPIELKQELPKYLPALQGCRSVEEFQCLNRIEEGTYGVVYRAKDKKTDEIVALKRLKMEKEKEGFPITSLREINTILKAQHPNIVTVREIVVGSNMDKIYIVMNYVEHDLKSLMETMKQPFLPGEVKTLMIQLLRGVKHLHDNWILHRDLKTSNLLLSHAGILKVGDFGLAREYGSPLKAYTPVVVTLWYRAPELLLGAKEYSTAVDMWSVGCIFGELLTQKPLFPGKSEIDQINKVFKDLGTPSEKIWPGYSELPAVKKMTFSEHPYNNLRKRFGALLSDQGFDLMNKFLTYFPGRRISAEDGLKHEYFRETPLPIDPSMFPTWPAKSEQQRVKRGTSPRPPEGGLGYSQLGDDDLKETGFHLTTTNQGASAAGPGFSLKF
Sequence of ROCK II (O75116 whole entry): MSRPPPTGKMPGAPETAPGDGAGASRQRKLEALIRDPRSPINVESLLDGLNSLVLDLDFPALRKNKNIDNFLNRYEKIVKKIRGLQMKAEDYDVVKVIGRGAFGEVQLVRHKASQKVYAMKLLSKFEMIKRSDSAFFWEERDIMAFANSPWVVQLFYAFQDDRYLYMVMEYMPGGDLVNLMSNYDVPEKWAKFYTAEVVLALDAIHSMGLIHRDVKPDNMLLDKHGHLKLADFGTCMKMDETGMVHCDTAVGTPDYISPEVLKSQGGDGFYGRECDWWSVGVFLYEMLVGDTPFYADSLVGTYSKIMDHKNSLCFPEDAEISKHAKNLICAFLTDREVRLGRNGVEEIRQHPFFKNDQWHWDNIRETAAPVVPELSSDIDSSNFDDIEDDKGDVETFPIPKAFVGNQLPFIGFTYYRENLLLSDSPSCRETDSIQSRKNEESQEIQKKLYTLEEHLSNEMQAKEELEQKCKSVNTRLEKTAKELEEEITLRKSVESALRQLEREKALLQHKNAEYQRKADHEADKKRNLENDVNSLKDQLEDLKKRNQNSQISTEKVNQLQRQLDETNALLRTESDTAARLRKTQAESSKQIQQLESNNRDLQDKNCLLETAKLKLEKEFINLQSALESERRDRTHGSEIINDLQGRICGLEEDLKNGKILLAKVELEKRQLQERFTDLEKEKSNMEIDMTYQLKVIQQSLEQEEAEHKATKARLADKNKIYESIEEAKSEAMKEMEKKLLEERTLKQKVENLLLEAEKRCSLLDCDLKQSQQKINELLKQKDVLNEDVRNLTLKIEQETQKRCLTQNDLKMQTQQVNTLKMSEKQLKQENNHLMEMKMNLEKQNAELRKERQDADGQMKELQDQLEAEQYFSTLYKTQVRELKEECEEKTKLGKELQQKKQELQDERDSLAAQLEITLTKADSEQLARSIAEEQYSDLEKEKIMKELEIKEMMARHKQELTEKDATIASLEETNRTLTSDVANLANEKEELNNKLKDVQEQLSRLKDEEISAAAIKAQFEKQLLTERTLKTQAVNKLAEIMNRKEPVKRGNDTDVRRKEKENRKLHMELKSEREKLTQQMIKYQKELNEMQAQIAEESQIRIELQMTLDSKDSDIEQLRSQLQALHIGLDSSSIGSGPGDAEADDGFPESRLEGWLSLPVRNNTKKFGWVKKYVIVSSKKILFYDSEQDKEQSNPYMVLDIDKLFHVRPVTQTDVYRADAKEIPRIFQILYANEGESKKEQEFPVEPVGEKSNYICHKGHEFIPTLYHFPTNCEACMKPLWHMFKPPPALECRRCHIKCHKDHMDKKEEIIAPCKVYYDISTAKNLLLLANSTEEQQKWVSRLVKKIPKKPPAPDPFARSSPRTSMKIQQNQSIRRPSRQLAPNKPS
Sequence of CDK8 (P49336 whole entry): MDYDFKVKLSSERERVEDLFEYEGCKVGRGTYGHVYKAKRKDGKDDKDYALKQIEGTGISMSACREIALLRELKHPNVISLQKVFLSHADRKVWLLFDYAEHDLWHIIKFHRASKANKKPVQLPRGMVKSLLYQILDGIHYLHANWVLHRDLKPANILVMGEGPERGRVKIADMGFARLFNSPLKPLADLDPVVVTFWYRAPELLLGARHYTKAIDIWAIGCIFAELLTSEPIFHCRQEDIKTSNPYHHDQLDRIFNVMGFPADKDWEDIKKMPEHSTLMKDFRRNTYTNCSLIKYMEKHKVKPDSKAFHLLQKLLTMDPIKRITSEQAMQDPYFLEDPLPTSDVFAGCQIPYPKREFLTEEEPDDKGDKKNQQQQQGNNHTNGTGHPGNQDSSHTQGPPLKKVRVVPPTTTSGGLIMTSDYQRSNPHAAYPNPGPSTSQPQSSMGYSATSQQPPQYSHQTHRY

SMILES: CN(C)C1CC23CCC4(O2)C(=CCC2(C)C(c5ccc6ccncc6c5)CCC42)C=C3C(O)C1O (stereo not shown) [CA, Cortistatin A]
- Kd [1]: 220 ± 2 nM
- transcription activity from CMV and MLV promoters [2]: reduces the transcription activity
- interaction with DNA-PK [3]: seems to interact
- interaction with TAR-nonbinding basic region Tat mutant (pull-down) [4]: not
- IC50 [5]: 350 nM
- pull down of RNA polymerase [6]: shown to pull down
- EC50 for the inhibition of HIV activity [7]: picomolar to low nanomolar range
- interaction with CDK11 (pull-down) [8]: did not interact
- interaction with Sp1 [9]: not observed
- Kd [10]: 10 ± 2 nM
- Kd [11]: 17 ± 2 nM
- competition for binding of recombinant Tat to Bio-dCA [12]: competed
- interaction with Tat (pull-down) ([12]; flag-tagged Tat expressed in cells or recombinant Tat): interacts

SMILES: Cc1cn([C@H]2C[C@H](N=[N+]=[N-])[C@@H](CO)O2)c(=O)[nH]c1=O [AZT, zidovudine, reference compound]
- EC50 [13]: 5.2 nM

SMILES: Cc1nnc(C(=O)NC(C)(C)c2nc(C(=O)NCc3ccc(F)cc3)c(O)c(=O)n2C)o1 [Raltegravir, reference compound]
- competition for binding of recombinant Tat to Bio-dCA [12]: not
- EC50, HIV-1 replication in primary cells (PBMCs) [14]: similar

SMILES: CC(C)(C)NC(=O)[C@@H]1C[C@@H]2CCCC[C@@H]2CN1C[C@@H](O)[C@H](Cc1ccccc1)NC(=O)[C@H](CC(N)=O)NC(=O)c1ccc2ccccc2n1 [saquinavir, reference compound]
- EC50, HIV-1 replication in primary cells (PBMCs) [14]: similar

SMILES: CN(C)[C@H]1C[C@@]23CC[C@@]4(O2)C(=CC[C@]2(C)C(c5ccc6ccncc6c5)=CC[C@H]24)C=C3[C@@H](OC(=O)CCCCCNC(=O)CCCC[C@@H]2SC[C@@H]3NC(=O)N[C@@H]32)[C@@H]1O.O=C(O)C(F)(F)F.O=C(O)C(F)(F)F [Bio-CA]
- EC50 relative to CA [7]: 10 fold
- viability of the cells [15]: did not compromise the viability of the cells
